The test system of the test is Plasmodium berghei. As to the kind of experiment: Luciferase/luciferin-expressing antifolate-resistant parasites were used to infect a culture of HepG2 cells that were pre-incubated with compounds. Infected hepatocytes emit light due to the luciferase reaction. Assay results are presented as the percent inhibition of light emission compared to control. […]. The test is classed as functional. The note with it: sporozoite; for IC90: read-out: LUCIFERASE INFECTION ASSAY - IC90.

The mark [1] stands for this setting: read-out: LUCIFERASE INFECTION ASSAY - IC50.

The text below walks through data of ChEMBL document CHEMBL4483862, “Open-source discovery of chemical leads for next-generation chemoprotective antimalarials” (2018).

The term IC50 denotes the concentration needed to halve the response being measured. The IC90 is the point of the concentration-response curve where the effect stands at 90%.

Bounds are passed on as bounds.

Turning to `CCN(Cc1ccccc1)S(=O)(=O)c1cc(C(=O)N2CCc3ccccc3C2)ccc1OC`, the concentration for an effect of 90% (IC90) is greater than 10 µM. Further, the 50% inhibitory concentration (IC50) (PBLUC_HILL_SLOPE 15.3, PBLUC_R_SQUARED 0.425, read-out: LUCIFERASE INFECTION ASSAY - IC50) worked out at 9.68 µM.
For `Cc1csc2sc(/C=N/Cc3cccs3)c(C)c12`, the IC90 is greater than 11.3 µM. Under setting [1], the half-maximal inhibitory concentration (IC50) is greater than 11.3 µM.
In the case of `Cc1onc(-c2ccc(Cl)cc2Cl)c1-c1csc(Nc2cc(C(F)(F)F)cc(C(F)(F)F)c2)n1`, the IC90 amounted to 2.73 µM. Under “HEPG2TOX_HILL_SLOPE 2.62, HEPG2TOX_R_SQUARED 0.945, PBLUC_HILL_SLOPE 2.66, PBLUC_R_SQUARED 0.706, read-out: LUCIFERASE INFECTION ASSAY - IC50”, the half-maximal inhibitory concentration (IC50) stood at 1.19 µM.
Regarding `CCN(c1ccccc1)S(=O)(=O)c1cc(-c2oc3ccc(F)cc3c(=O)c2C)ccc1C`, the IC90 is greater than 10 µM. Moreover, the half-maximal inhibitory concentration (IC50) (PBLUC_HILL_SLOPE 4.38, PBLUC_R_SQUARED 0.421, read-out: LUCIFERASE INFECTION ASSAY - IC50) is 6.53 µM.
Regarding `CC(=O)c1cccc(-c2ccc3ncc(-c4cccc(O)c4)n3n2)c1`, the IC90 was found to be 3.6 µM. Moreover, under “HEPG2TOX_HILL_SLOPE 4.7, HEPG2TOX_R_SQUARED 0.977, PBLUC_HILL_SLOPE 30, PBLUC_R_SQUARED 0.547, read-out: LUCIFERASE INFECTION ASSAY - IC50”, the IC50 was 3.34 µM.
In the case of `C=C(C)C(=O)Oc1ccc(Oc2c(F)c(F)c(-c3c(F)c(F)c(Oc4ccc(OC(=O)C(=C)C)cc4)c(F)c3F)c(F)c2F)cc1`, the 90% effect concentration (IC90) is greater than 10 µM. Under setting [1], the 50% inhibitory concentration (IC50) is greater than 10 µM.
In the case of `COc1ccc(NC(=O)c2ccc(NC(=O)c3nc4nccc(C)n4n3)cc2)cc1`, the IC90 is greater than 10 µM. Further, under setting [1], the concentration for half-maximal inhibition (IC50) was greater than 10 µM.
As to `CN(C)S(=O)(=O)c1ccc(OCCOC(=O)c2c3c(nn2-c2ccccc2)CCCC3)cc1`, the IC90 was greater than 10 µM. Moreover, the concentration for half-maximal inhibition (IC50) (FFLUC_HILL_SLOPE 11.3, FFLUC_R_SQUARED 0.368, read-out: LUCIFERASE INFECTION ASSAY - IC50) is greater than 10 µM.
In the case of `CN(C)CCCNc1nc2sc3c(c2c(=O)n1-c1ccccc1)CCCCC3`, the IC90 was greater than 8.32 µM. Moreover, the 50% inhibitory concentration (IC50) under setting [1] is greater than 8.32 µM.
With `O=C1/C(=C/c2ccc(-n3cncn3)c(F)c2)CSc2ccccc21`, the 90% effect concentration (IC90) is greater than 10 µM. Also, the IC50 under setting [1] was greater than 10 µM.
For `COc1ccc(-c2nnc(NC(=O)c3ccc(C)c(S(=O)(=O)N4CCCCC4)c3)[nH]2)cc1`, the concentration for an effect of 90% (IC90) is 6.51 µM. Further, the IC50 (HEPG2TOX_HILL_SLOPE 2.01, HEPG2TOX_R_SQUARED 0.893, PBLUC_HILL_SLOPE 2.99, PBLUC_R_SQUARED 0.681, read-out: LUCIFERASE INFECTION ASSAY - IC50) worked out at 3.12 µM.
In the case of `CN(CC(=O)Nc1ccc(N2CCOCC2)cc1)Cn1nc(-c2cccs2)n(CC2CCCO2)c1=S` (stereo not drawn), the 90% effect concentration (IC90) was greater than 10 µM. The IC50 under setting [1] was greater than 10 µM.
As for `Cc1sc2ncnc(N3CCC(C(=O)N(CC(C)C)c4nc5ccccc5s4)CC3)c2c1C`, the 90% effect concentration (IC90) is greater than 10 µM. The IC50 (PBLUC_HILL_SLOPE 1.15, PBLUC_R_SQUARED 0.711, read-out: LUCIFERASE INFECTION ASSAY - IC50) is 4.09 µM.
As to `O=C1C=C(NCc2ccccc2)CC(c2ccc(Cl)cc2)C1` (stereo not drawn), the IC90 was greater than 10.6 µM. Where the note is “HEPG2TOX_HILL_SLOPE 2.56, HEPG2TOX_R_SQUARED 0.714, PBLUC_HILL_SLOPE 1.97, PBLUC_R_SQUARED 0.212, read-out: LUCIFERASE INFECTION ASSAY - IC50”, the concentration for half-maximal inhibition (IC50) was 6.81 µM.
For the compound `COc1cc(OC)c(C2=CCN(c3cc(=O)n4ccccc4n3)CC2)c(OC)c1`, the 90% effect concentration (IC90) was greater than 10 µM. In addition, the IC50 (PBLUC_HILL_SLOPE 11.4, PBLUC_R_SQUARED 0.492, read-out: LUCIFERASE INFECTION ASSAY - IC50) came to 9.03 µM.
For `CC(c1ccc(S(C)(=O)=O)cc1)N(C)S(=O)(=O)c1ccccc1F` (stereo not drawn), the concentration for an effect of 90% (IC90) is greater than 10 µM. The IC50 under setting [1] was greater than 10 µM.
Turning to `COc1ccc(Br)cc1/C=C/c1ccc2c([N+](=O)[O-])cccc2n1`, the IC90 was greater than 10 µM. In addition, the half-inhibitory concentration (IC50) under setting [1] is greater than 10 µM.
In the case of `CCS(=O)(=O)c1ncc(Cl)c(C(=O)Nc2ccc(C(=O)OC)cc2)n1`, the IC90 stood at 4.66 µM. Also, where the note is “HEPG2TOX_HILL_SLOPE 3.26, HEPG2TOX_R_SQUARED 0.643, PBLUC_HILL_SLOPE 9.13, PBLUC_R_SQUARED 0.474, read-out: LUCIFERASE INFECTION ASSAY - IC50”, the IC50 came out at 3.67 µM.
Take `COc1ccc(OC)c(CN2CCN(c3nn4cc(-c5ccccc5)nc4s3)CC2)c1`: the concentration for an effect of 90% (IC90) was greater than 10 µM. In addition, the 50% inhibitory concentration (IC50) (PBLUC_HILL_SLOPE 9.65, 2.13, PBLUC_R_SQUARED 0.339, 0.240, read-out: LUCIFERASE INFECTION ASSAY - IC50) was 6.69 µM.
For `CCOC(=O)c1c(C)[nH]c(C(=O)CSc2nnc(C3COc4ccccc4O3)n2-c2ccccc2)c1C` (stereo not drawn), the concentration for an effect of 90% (IC90) is greater than 10 µM. The half-maximal inhibitory concentration (IC50) under setting [1] is greater than 10 µM.
For `Oc1ccc(-c2cnc3cnc(-c4ccc(Cl)cc4)cn23)cc1`, the 90% effect concentration (IC90) is 4.61 µM. For the same compound, the 50% inhibitory concentration (IC50) (HEPG2TOX_HILL_SLOPE 2.24, HEPG2TOX_R_SQUARED 0.991, PBLUC_HILL_SLOPE 6.34, PBLUC_R_SQUARED 0.684, read-out: LUCIFERASE INFECTION ASSAY - IC50) was found to be 3.26 µM.
`Fc1ccc(CSc2nnnn2-c2ccc3c(c2)OCO3)c(Cl)c1`: the 90% effect concentration (IC90) turned out to be 8.12 µM. Under “HEPG2TOX_HILL_SLOPE 1.94, HEPG2TOX_R_SQUARED 0.929, PBLUC_HILL_SLOPE 1.23, PBLUC_R_SQUARED 0.52, read-out: LUCIFERASE INFECTION ASSAY - IC50”, the IC50 came to 1.37 µM.
Take `COc1ccc(-c2nc(C(=O)N3CCc4ccccc43)cs2)cc1OC`: the IC90 stood at 2.46 µM. The half-inhibitory concentration (IC50) (HEPG2TOX_HILL_SLOPE 2.84, HEPG2TOX_R_SQUARED 0.79, PBLUC_HILL_SLOPE 2.13, PBLUC_R_SQUARED 0.686, read-out: LUCIFERASE INFECTION ASSAY - IC50) is 0.875 µM.
As to `COc1ccc(-c2cc(NC(=O)C3CCN(C(=O)C(C)C)CC3)ccc2OC(F)F)cc1`, the concentration for an effect of 90% (IC90) was greater than 10 µM. Further, the concentration for half-maximal inhibition (IC50) (PBLUC_HILL_SLOPE 1.23, PBLUC_R_SQUARED 0.265, read-out: LUCIFERASE INFECTION ASSAY - IC50) is 3.95 µM.
Consider `CNC(=O)c1ccc(CN(C2CC2)S(=O)(=O)c2ccc(C)c(C)c2)cc1`, for which the IC90 is greater than 10 µM. The IC50 (PBLUC_HILL_SLOPE 3.66, PBLUC_R_SQUARED 0.689, read-out: LUCIFERASE INFECTION ASSAY - IC50) stood at 5.91 µM.
Take `COC(=O)/C=C/c1ccc(OCC(O)COc2ccc(C(C)(C)C)cc2)c(OC)c1` (stereo not drawn): the 90% effect concentration (IC90) was greater than 10 µM. For the same compound, under setting [1], the IC50 is greater than 10 µM.
For `CCOC(=O)c1c(NC(=O)C(C)N(C)CC(=O)Nc2cc(C)ccc2C)sc2c1CCC(C)C2` (stereo not drawn), the 90% effect concentration (IC90) was greater than 10 µM. Further, under setting [1], the half-inhibitory concentration (IC50) was greater than 10 µM.
As to `COc1ccccc1C(=O)N(c1ccc(F)cc1)c1nc2ccccc2s1`, the IC90 is greater than 10 µM. Under setting [1], the concentration for half-maximal inhibition (IC50) was greater than 10 µM.
Consider `O=C(CCn1cnc2ccccc2c1=O)Nc1ccc(Br)cn1`, for which the IC90 was determined as 4.76 µM. In addition, the IC50 (HEPG2TOX_HILL_SLOPE 3.2, HEPG2TOX_R_SQUARED 0.878, PBLUC_HILL_SLOPE 4.82, PBLUC_R_SQUARED 0.722, read-out: LUCIFERASE INFECTION ASSAY - IC50) was determined as 3.02 µM.
On to `CC(C)(C)C(=O)/C=c1\s/c(=C\c2ccsc2)c(=O)n1CC(=O)N1CCc2ccccc21`, for which the IC90 was greater than 10 µM. Moreover, the half-maximal inhibitory concentration (IC50) under setting [1] is greater than 10 µM.
Regarding `C/C(=N\NC(=S)Nc1cccc(Cl)c1C)c1cccc(C(F)(F)F)c1`, the IC90 is greater than 10 µM. The IC50 (HEPG2TOX_HILL_SLOPE 2.50, 1.90, HEPG2TOX_R_SQUARED 0.489, 0.932, PBLUC_HILL_SLOPE 2.58, PBLUC_R_SQUARED 0.215, read-out: LUCIFERASE INFECTION ASSAY - IC50) amounted to 7.21 µM.
With `COc1ccc(/C=C/c2ccc3c(Cl)cc(Cl)c(O)c3n2)cc1`, the 90% effect concentration (IC90) is 0.43 µM. In addition, where the note is “HEPG2TOX_HILL_SLOPE 0.83, HEPG2TOX_R_SQUARED 0.868, PBLUC_HILL_SLOPE 16.3, PBLUC_R_SQUARED 0.735, read-out: LUCIFERASE INFECTION ASSAY - IC50”, the IC50 is 0.375 µM.
Take `CCOC(=O)C1CCN(c2cc(C(F)(F)F)nc3c(F)cccc23)CC1`: the IC90 is greater than 8.91 µM. Further, the IC50 (FFLUC_HILL_SLOPE 11, FFLUC_R_SQUARED 0.219, read-out: LUCIFERASE INFECTION ASSAY - IC50) was greater than 8.91 µM.
As to `Cn1nc(-c2ccc(Cl)cc2)cc1N`, the 90% effect concentration (IC90) is greater than 15.9 µM. Moreover, the half-maximal inhibitory concentration (IC50) (FFLUC_HILL_SLOPE 24.2, FFLUC_R_SQUARED 0.094, read-out: LUCIFERASE INFECTION ASSAY - IC50) is greater than 15.9 µM.
`CCCNC(=O)C1(C)CCCN(C(=O)c2cccc(OC(C)=O)c2C)C1` (stereo not drawn): the concentration for an effect of 90% (IC90) is greater than 9.16 µM. For the same compound, under setting [1], the IC50 is greater than 9.16 µM.
For `CCN(CC)S(=O)(=O)c1ccc(Cl)c(NC(=O)COC(=O)c2c3c(nc4ccccc24)CCC(C)C3)c1` (stereo not drawn), the IC90 was found to be 4.21 µM. Moreover, the IC50 (HEPG2TOX_HILL_SLOPE 20.1, HEPG2TOX_R_SQUARED 0.334, PBLUC_HILL_SLOPE 11.1, PBLUC_R_SQUARED 0.597, read-out: LUCIFERASE INFECTION ASSAY - IC50) worked out at 3.46 µM.
In the case of `CSC1=CC(=O)CC(C)(C)S1`, the IC90 was greater than 17.5 µM. In addition, under setting [1], the IC50 is greater than 17.5 µM.
Regarding `S=C(Nc1ccccc1)N1CCCN(c2nc3ccc(Cl)cc3s2)CC1`, the IC90 was 3.16 µM. Further, the concentration for half-maximal inhibition (IC50) (HEPG2TOX_HILL_SLOPE 1.54, HEPG2TOX_R_SQUARED 0.918, PBLUC_HILL_SLOPE 12.4, PBLUC_R_SQUARED 0.732, read-out: LUCIFERASE INFECTION ASSAY - IC50) was 2.65 µM.
With `COc1cccc(C(CNc2nc(C)nc3sc4c(c23)CCCCC4)N2CCCC2)c1` (stereo not drawn), the concentration for an effect of 90% (IC90) is greater than 10 µM. Under setting [1], the IC50 is greater than 10 µM.
